Experimental data published in PubChem BioAssay AID2060329 (Molecular Pharmacology Branch, DTP, NCI, 2025).

System: MCF7 multi-cell spheroids with HUVEC/MSC, viability
Assay: Anticancer human tumor MCF7 cell line growth inhibition [IpAb];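 note: spheroids exposed to agents for seven days before readout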
Conditions: for viability, T/C: stronger effect = lower value; for IC50: curve of first compound
Text: Combinatorial screen of targeted agents with ipatasertib and abemaciclib in multi-cell type tumor spheroids
A high-throughput screen of multi-cell type tumor spheroids was designed to identify active combinations of targeted small molecules and ipatasertib or abemaciclib. Complex spheroids include a stromal component modeled by human endothelial cells (HUVEC) and fibroblasts modeled by human mesenchymal stem cells (MSCs). The concentration ranges selected for each drug and investigational agent were based upon clinically achievable concentrations if the clinical Cmax of the agent was known.
Compounds. The drugs and investigational agents: ipatasertib (NSC767898), abemaciclib(NSC768073), selumetinib (NSC741078), trametinib (758246), adavosertib (NSC754352), everolimus (NSC733504), sapanisertib (NSC764658), vemurafenib (NSC761431), venetoclax (NSC766270), copanlisib (NSC809693), apelisib (NSC765974), palbociblib (NSC758247), vemurafenib (NSC761431), dabrafenib (NSC764134), ravoxertinib (NSC781343), BMS-387032 (NSC767048), sotorasib (NSC818433), talazoparib (NSC767125) and afursertib (NSC778305), were obtained from the National Cancer Institute (NCI) Developmental Therapeutics Program Chemical Repository. The FDA-approved anticancer drug set is available from the NCI Developmental Therapeutics Program. […] The stock solutions were prepared in dimethyl sulfoxide (DMSO, Sigma-Aldrich, St. Louis, MO, cat. D2650) at 800-fold the tested concentration and stored at -70 degrees C prior to their use. All drugs and investigational agents were tested over a range starting from a high concentration at or near the clinical Cmax and decreasing in half-log increments. If the clinical Cmax for an agent had not been determined, the highest concentration tested was 10 microM.
NCI60 Cell Culture. NCI60 cell lines were obtained from the NCI Developmental Therapeutics Program Tumor Repository. For each lot of cells, the Repository performed Applied Biosystems AmpFLSTR Identifiler testing with PCR amplification to confirm consistency with the published Identifier STR profile for each cell line. Cells were kept in continuous culture for no more than 20 passages. The optimal seeding densities for each of the cell lines at each time point assessed were determined prior to performing the concentration response studies. Briefly, the NCI60 human tumor lines were grown as monolayers in RPMI 1640 medium supplemented with 10% FBS and 2 mmol/L L-glutamine.
An additional 9 lines were from the NCI60 cell line panel including MDA-MB-231 breast carcinoma, MDA-MB-468 breast carcinoma, MCF7 breast carcinoma, Hs578T breast carcinoma, MALME-3M melanoma, SK-MEL-2 melanoma, SK-OV-3 ovarian carcinoma, DU-145 prostate carcinoma, PC-3 prostate carcinoma, all cell lines along with major genetic alterations are listed on Table 2. Pooled donor human umbilical vein endothelial cells (HUVEC, Lonza, cat. CC-2519) and human mesenchymal stem cells (hMSC, Lonza, cat. PT-2501) were purchased from Lonza (Walkersville, MD).
PDMR cell lines were grown in complete medium (DC medium): Dulbecco's modified Eagle's medium (DMEM)/F12 supplemented with 5% fetal bovine serum (FBS), 2 mM L-glutamine, 100 U/mL penicillin and 100 µg/ml streptomycin, 0.4 µg/ml hydrocortisone, 10 ng/ml epidermal growth factor (EGF) recombinant human protein, 24 µg/mL adenine, and 0.1 mg/mL primocin. During culture from frozen stock vials, PDMR cells were cultured in the same medium containing 10 µM Y-27632 (see Table 3). The PDCs were cultured in complete DMEM/F12 media without 10 microM Y-27632 dihydrochloride for at least two passages prior to the screen. The pooled donor HUVEC and hMSC were cultured in endothelial cell growth medium 2 (PromoCell, Heidelberg, Germany, cat. C-22011) and mesenchymal stem cell growth medium 2 (PromoCell, cat. C-28009), respectively. For all experiments, HUVEC and hMSC were used at passages </=5.
[…]

[1] = second compound 0.1 µM, first compound 0.0316 µM
[2] = second compound 0.1 µM, first compound 0.1 µM
[3] = second compound 0.316 µM, first compound 0.0316 µM
[4] = second compound 0.316 µM, first compound 0.1 µM
[5] = second compound 1 µM, first compound 0.0316 µM
[6] = second compound 1 µM, first compound 0.1 µM
[7] = second compound 3.16 µM, first compound 0.0316 µM
[8] = second compound 3.16 µM, first compound 0.1 µM
[9] = second compound 10 µM, first compound 0.0316 µM
[10] = second compound 10 µM, first compound 0.1 µM

CC(C)NCC(C(=O)N1CCN(c2ncnc3c2C(C)CC3O)CC1)c1ccc(Cl)cc1 (centres undefined)
viability, T/C (compound 0.1 µM): 86.9% [middle of 13 runs] | viability, T/C (compound 0.316 µM): 75.5% [middle of 13 runs] | viability, T/C (compound 1 µM): 65.3% [middle of 13 runs] | viability, T/C (compound 3.16 µM): 54.2% [middle of 13 runs]

Cn1ncnc1[C@H]1c2n[nH]c(=O)c3cc(F)cc(c23)N[C@@H]1c1ccc(F)cc1 + CC(C)NCC(C(=O)N1CCN(c2ncnc3c2C(C)CC3O)CC1)c1ccc(Cl)cc1
IC50 (second compound 0.1 µM): > 100 nM | IC50 (second compound 0.316 µM): > 100 nM | IC50 (second compound 1 µM): > 100 nM | IC50 (second compound 3.16 µM): 20.3 nM | IC50 (second compound 10 µM): < 0.316 nM | viability, T/C (second compound 0.1 µM, first compound 0.000316 µM): 98.7% | viability, T/C (second compound 0.1 µM, first compound 0.001 µM): 92.8% | viability, T/C (second compound 0.1 µM, first compound 0.00316 µM): 89.7% | viability, T/C (second compound 0.1 µM, first compound 0.01 µM): 87.5% | viability, T/C [1]: 79.8% | viability, T/C [2]: 85.5% | viability, T/C (second compound 0.316 µM, first compound 0.000316 µM): 74.4% | viability, T/C (second compound 0.316 µM, first compound 0.001 µM): 79.9% | viability, T/C (second compound 0.316 µM, first compound 0.00316 µM): 81.2% | viability, T/C (second compound 0.316 µM, first compound 0.01 µM): 72.5% | viability, T/C [3]: 71.8% | viability, T/C [4]: 82.6% | viability, T/C (second compound 1 µM, first compound 0.000316 µM): 67.9% | viability, T/C (second compound 1 µM, first compound 0.001 µM): 75.6% | viability, T/C (second compound 1 µM, first compound 0.00316 µM): 67.2% | viability, T/C (second compound 1 µM, first compound 0.01 µM): 62.3% | viability, T/C [5]: 63% | viability, T/C [6]: 56.5% | viability, T/C (second compound 3.16 µM, first compound 0.000316 µM): 59% | viability, T/C (second compound 3.16 µM, first compound 0.001 µM): 56.3% | viability, T/C (second compound 3.16 µM, first compound 0.00316 µM): 58.3% | viability, T/C (second compound 3.16 µM, first compound 0.01 µM): 50.1% | viability, T/C [7]: 47.4% | viability, T/C [8]: 46.4% | viability, T/C (second compound 10 µM, first compound 0.000316 µM): 42.3% | viability, T/C (second compound 10 µM, first compound 0.001 µM): 46.5% | viability, T/C (second compound 10 µM, first compound 0.00316 µM): 39.9% | viability, T/C (second compound 10 µM, first compound 0.01 µM): 36.1% | viability, T/C [9]: 41.5% | viability, T/C [10]: 36.4%

Cn1ncc(Cl)c1-c1cc(C(=O)NC(CN)Cc2cccc(F)c2)sc1Cl (centres undefined) + CC(C)NCC(C(=O)N1CCN(c2ncnc3c2C(C)CC3O)CC1)c1ccc(Cl)cc1
IC50 (second compound 0.1 µM): 1200 nM | IC50 (second compound 0.316 µM): 996 nM | IC50 (second compound 1 µM): 1310 nM | IC50 (second compound 3.16 µM): 566 nM | IC50 (second compound 10 µM): < 31.6 nM | viability, T/C [1]: 85.2% | viability, T/C [2]: 79.4% | viability, T/C (second compound 0.1 µM, first compound 0.316 µM): 74.2% | viability, T/C (second compound 0.1 µM, first compound 1 µM): 59.2% | viability, T/C (second compound 0.1 µM, first compound 3.16 µM): 3.8% | viability, T/C (second compound 0.1 µM, first compound 10 µM): 0.14% | viability, T/C [3]: 84.1% | viability, T/C [4]: 73.7% | viability, T/C (second compound 0.316 µM, first compound 0.316 µM): 72.5% | viability, T/C (second compound 0.316 µM, first compound 1 µM): 51.1% | viability, T/C (second compound 0.316 µM, first compound 3.16 µM): 10.7% | viability, T/C (second compound 0.316 µM, first compound 10 µM): 0.13% | viability, T/C [5]: 74.7% | viability, T/C [6]: 70.7% | viability, T/C (second compound 1 µM, first compound 0.316 µM): 67.5% | viability, T/C (second compound 1 µM, first compound 1 µM): 63.4% | viability, T/C (second compound 1 µM, first compound 3.16 µM): 7% | viability, T/C (second compound 1 µM, first compound 10 µM): 0.12% | viability, T/C [7]: 59.9% | viability, T/C [8]: 61.4% | viability, T/C (second compound 3.16 µM, first compound 0.316 µM): 54% | viability, T/C (second compound 3.16 µM, first compound 1 µM): 43.2% | viability, T/C (second compound 3.16 µM, first compound 3.16 µM): 6.48% | viability, T/C (second compound 3.16 µM, first compound 10 µM): 0.13% | viability, T/C [9]: 42.6% | viability, T/C [10]: 49.1% | viability, T/C (second compound 10 µM, first compound 0.316 µM): 47.3% | viability, T/C (second compound 10 µM, first compound 1 µM): 43.3% | viability, T/C (second compound 10 µM, first compound 3.16 µM): 2.17% | viability, T/C (second compound 10 µM, first compound 10 µM): 0.59%
